Experimental data published in ChEMBL document CHEMBL1201862, “PubChem BioAssay data set” (2004).
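Method: 48-hour compound exposure of cells in 96-well plates, five concentrations, linear interpolation of endpoints. GI50 = concentration required for 50% inhibition of growth.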 Active and inactive are the calls of the source. Rule as the data show it: active = GI50 up to about 1.1 µM and inactive = higher.

Key:
Assay in all cases: NCI anticancer screen, dose series, 48 h
786-0 = tested on: 786-0
A498 = tested on: A498
A549 = tested on: A549
ACHN = tested on: ACHN
CAKI-1 = tested on: CAKI-1
CCRF-CEM = tested on: CCRF-CEM
COLO 205 = tested on: COLO 205
DLD-1 = tested on: DLD-1
DMS-114 = tested on: DMS-114
DMS-273 = tested on: DMS-273
EKVX = tested on: EKVX
HCC 2998 = tested on: HCC 2998
HCT-116 = tested on: HCT-116
HCT-15 = tested on: HCT-15
HL-60 = tested on: HL-60
HOP-18 = tested on: HOP-18
HT-29 = tested on: HT-29
IGROV-1 = tested on: IGROV-1
K562 = tested on: K562
KM-20L2 = tested on: KM-20L2
KM12 = tested on: KM12
LOX IMVI = tested on: LOX IMVI
M14 = tested on: M14
M19-MEL = tested on: M19-MEL
MOLT-4 = tested on: MOLT-4
Malme-3M = tested on: Malme-3M
NCI-H226 = tested on: NCI-H226
NCI-H23 = tested on: NCI-H23
NCI-H460 = tested on: NCI-H460
NCI-H522 = tested on: NCI-H522
OVCAR-3 = tested on: OVCAR-3
OVCAR-4 = tested on: OVCAR-4
OVCAR-5 = tested on: OVCAR-5
OVCAR-8 = tested on: OVCAR-8
RPMI-8226 = tested on: RPMI-8226
SF-268 = tested on: SF-268
SF-295 = tested on: SF-295
SF-539 = tested on: SF-539
SK-MEL-2 = tested on: SK-MEL-2
SK-MEL-5 = tested on: SK-MEL-5
SK-OV-3 = tested on: SK-OV-3
SN12C = tested on: SN12C
SNB-19 = tested on: SNB-19
SW-620 = tested on: SW-620
TK-10 = tested on: TK-10
U-251 = tested on: U-251
UACC-257 = tested on: UACC-257
UACC-62 = tested on: UACC-62
UO-31 = tested on: UO-31
XF498 = tested on: XF498
HOP-62 = tested on: HOP-62
HOP-92 = tested on: HOP-92
LXFL 529 = tested on: LXFL 529
RXF 393 = tested on: RXF 393
SK-MEL-28 = tested on: SK-MEL-28
SNB-75 = tested on: SNB-75
SNB-78 = tested on: SNB-78
SR = tested on: SR

CCOC(=O)c1cc(/C=C/C(C)=C/C(=O)OC)oc1-c1ccccc1
GI50 (786-0): > 100 µM (inactive)
GI50 (A498): > 100 µM (inactive)
GI50 (A549): 49.8 µM (inactive)
GI50 (ACHN): 71.8 µM (inactive)
GI50 (CAKI-1): 55.8 µM (inactive)
GI50 (CCRF-CEM): 48.9 µM (inactive)
GI50 (COLO 205): > 100 µM (inactive)
GI50 (DLD-1): 66.7 µM (inactive)
GI50 (DMS-114): 63.5 µM (inactive)
GI50 (DMS-273): 92.5 µM (inactive)
GI50 (EKVX): > 100 µM (inactive)
GI50 (HCC 2998): > 100 µM (inactive)
GI50 (HCT-116): 32.1 µM (inactive)
GI50 (HCT-15): 58.9 µM
GI50 (HL-60): 46.2 µM (inactive)
GI50 (HOP-18): 42.9 µM (inactive)
GI50 (HT-29): > 100 µM (inactive)
GI50 (IGROV-1): 66.7 µM (inactive)
GI50 (K562): 33.8 µM (inactive)
GI50 (KM-20L2): 81.5 µM (inactive)
GI50 (KM12): 48.4 µM (inactive)
GI50 (LOX IMVI): > 100 µM (inactive)
GI50 (M14): > 100 µM (inactive)
GI50 (M19-MEL): > 100 µM (inactive)
GI50 (MOLT-4): 38.6 µM (inactive)
GI50 (Malme-3M): > 100 µM (inactive)
GI50 (NCI-H226): > 100 µM (inactive)
GI50 (NCI-H23): 61.8 µM (inactive)
GI50 (NCI-H460): 65.3 µM (inactive)
GI50 (NCI-H522): 39.7 µM (inactive)
GI50 (OVCAR-3): 73.5 µM (inactive)
GI50 (OVCAR-4): 63.5 µM (inactive)
GI50 (OVCAR-5): > 100 µM (inactive)
GI50 (OVCAR-8): 92.7 µM (inactive)
GI50 (RPMI-8226): 31.6 µM (inactive)
GI50 (SF-268): 40.8 µM (inactive)
GI50 (SF-295): 50.8 µM (inactive)
GI50 (SF-539): 43.9 µM (inactive)
GI50 (SK-MEL-2): > 100 µM (inactive)
GI50 (SK-MEL-5): > 100 µM (inactive)
GI50 (SK-OV-3): > 100 µM (inactive)
GI50 (SN12C): 73.8 µM (inactive)
GI50 (SNB-19): 38.5 µM (inactive)
GI50 (SW-620): > 100 µM (inactive)
GI50 (TK-10): > 100 µM (inactive)
GI50 (U-251): 50 µM (inactive)
GI50 (UACC-257): 61.8 µM (inactive)
GI50 (UACC-62): 41.3 µM (inactive)
GI50 (UO-31): 35.4 µM (inactive)
GI50 (XF498): > 100 µM (inactive)

CN1CCC(C(=O)NNc2ccccc2)CC1
GI50 (A498): > 100 µM (inactive)
GI50 (A549): 12.2 µM (inactive)
GI50 (ACHN): 2.66 µM (inactive)
GI50 (CAKI-1): > 20.6 µM (inactive)
GI50 (COLO 205): 3.08 µM (inactive)
GI50 (DLD-1): 12.8 µM (inactive)
GI50 (DMS-114): 9.31 µM (inactive)
GI50 (DMS-273): 3.1 µM (inactive)
GI50 (EKVX): 34.5 µM (inactive)
GI50 (HCC 2998): 5.22 µM (inactive)
GI50 (HCT-116): > 43.4 µM (inactive)
GI50 (HCT-15): 1.61 µM
GI50 (HL-60): 2.65 µM (inactive)
GI50 (HOP-18): > 61.5 µM (inactive)
GI50 (HOP-62): 14.3 µM (inactive)
GI50 (HOP-92): > 100 µM (inactive)
GI50 (HT-29): 7.53 µM (inactive)
GI50 (IGROV-1): > 36.6 µM (inactive)
GI50 (K562): 0.931 µM (active)
GI50 (KM-20L2): 1.69 µM (inactive)
GI50 (KM12): 3.15 µM (inactive)
GI50 (LOX IMVI): 0.923 µM (active)
GI50 (LXFL 529): 0.9 µM (active)
GI50 (M14): 1.5 µM (inactive)
GI50 (M19-MEL): 13.9 µM (inactive)
GI50 (MOLT-4): 1.23 µM (inactive)
GI50 (Malme-3M): 22.4 µM (inactive)
GI50 (NCI-H226): > 100 µM (inactive)
GI50 (NCI-H23): 42.4 µM (inactive)
GI50 (NCI-H460): 5.62 µM (inactive)
GI50 (NCI-H522): 3.27 µM (inactive)
GI50 (OVCAR-3): 16.9 µM (inactive)
GI50 (OVCAR-4): 13.3 µM (inactive)
GI50 (OVCAR-5): 8.3 µM (inactive)
GI50 (OVCAR-8): 9.73 µM (inactive)
GI50 (RPMI-8226): 24.8 µM (inactive)
GI50 (RXF 393): > 100 µM (inactive)
GI50 (SF-268): 7.05 µM (inactive)
GI50 (SF-295): 2.12 µM (inactive)
GI50 (SF-539): 7.87 µM (inactive)
GI50 (SK-MEL-28): 17.1 µM (inactive)
GI50 (SK-MEL-2): 9.02 µM (inactive)
GI50 (SK-MEL-5): 14.4 µM (inactive)
GI50 (SK-OV-3): > 100 µM (inactive)
GI50 (SN12C): > 100 µM (inactive)
GI50 (SNB-19): > 100 µM (inactive)
GI50 (SNB-75): > 80.2 µM (inactive)
GI50 (SNB-78): > 100 µM (inactive)
GI50 (SR): 7.43 µM (inactive)
GI50 (SW-620): 7.98 µM (inactive)
GI50 (TK-10): 18.3 µM (inactive)
GI50 (U-251): > 17.7 µM (inactive)
GI50 (UACC-257): 18.6 µM (inactive)
GI50 (UACC-62): 2.48 µM (inactive)
GI50 (UO-31): 3.16 µM (inactive)
GI50 (XF498): > 100 µM (inactive)
